From PubChem BioAssay AID248 (DTP/NCI, 2004)
“And” between values parts separate entries of the source, which are not always exact repeats. Equal entries are not always repeated. Toxic doses and inconclusive results are not listed. Cut-off read from the data, not from the text of the source: active = T/C of 150% or more; inactive = T/C below 125%.

System: L1210 leukemia ip in BDF1 mice, survival T/C
Assay: NCI In Vivo Anticancer Drug Screen. Data for tumor model L1210 Leukemia (intraperitoneal) in B6D2F1 (BDF1) mice
Settings: endpoint: mean survival time, higher = longer survival
Procedure, shortened: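 Mice bearing the transplanted tumor received compound or vehicle. Survival of the treated group was divided by that of the vehicle-treated control group to give the ratio.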

[1] = dose: 12.5 mg/kg/injection, schedule: Q04DX003 (ip), vehicle: saline
[2] = dose: 25.0 mg/kg/injection, schedule: Q04DX003 (ip), vehicle: saline
[3] = dose: 50.0 mg/kg/injection, schedule: Q04DX003 (ip), vehicle: saline
[4] = dose: 100.0 mg/kg/injection, schedule: Q04DX003 (ip), vehicle: saline
[5] = dose: 100.0 mg/kg/injection, schedule: Q01DX001 (ip), vehicle: saline
[6] = dose: 200.0 mg/kg/injection, schedule: Q01DX001 (ip), vehicle: saline
[7] = dose: 200.0 mg/kg/injection, schedule: Q04DX003 (ip), vehicle: saline
[8] = dose: 400.0 mg/kg/injection, schedule: Q01DX001 (ip), vehicle: saline
[9] = dose: 400.0 mg/kg/injection, schedule: Q04DX003 (ip), vehicle: saline
[10] = dose: 100.0 mg/kg/injection, schedule: Q01DX009 (ip), vehicle: saline with Tween-80
[11] = dose: 100.0 mg/kg/injection, schedule: Q04DX003 (ip), vehicle: saline with Tween-80
[12] = dose: 200.0 mg/kg/injection, schedule: Q01DX009 (ip), vehicle: saline with Tween-80
[13] = dose: 200.0 mg/kg/injection, schedule: Q04DX003 (ip), vehicle: saline with Tween-80
[14] = dose: 400.0 mg/kg/injection, schedule: Q01DX009 (ip), vehicle: saline with Tween-80
[15] = dose: 400.0 mg/kg/injection, schedule: Q04DX003 (ip), vehicle: saline with Tween-80
[16] = dose: 50.0 mg/kg/injection, schedule: Q01DX001 (ip), vehicle: saline

Measured: T/C

Oc1ccccc1/C=N\N=C(N/N=C/c1ccccc1O)N/N=C/c1ccccc1O
inactive: dose: 15.0 mg/kg/injection, schedule: Q01DX Z (ip), vehicle: saline 98 % of control | dose: 30.0 mg/kg/injection, schedule: Q01DX Z (ip), vehicle: saline 102 % of control | dose: 60.0 mg/kg/injection, schedule: Q01DX Z (ip), vehicle: saline 102 % of control | dose: 120.0 mg/kg/injection, schedule: Q01DX Z (ip), vehicle: saline 96 % of control | dose: 120.0 mg/kg/injection, schedule: Q01DX Z (oral), vehicle: saline 95 % of control | dose: 240.0 mg/kg/injection, schedule: Q01DX Z (ip), vehicle: saline 101 % of control | dose: 240.0 mg/kg/injection, schedule: Q01DX Z (oral), vehicle: saline 90 % of control | dose: 480.0 mg/kg/injection, schedule: Q01DX Z (ip), vehicle: saline 95 % of control | dose: 480.0 mg/kg/injection, schedule: Q01DX Z (oral), vehicle: saline 92 % of control | dose: 960.0 mg/kg/injection, schedule: Q01DX Z (oral), vehicle: saline 90 % of control

NC(=S)N/N=C/c1ccc(F)cc1
inactive: dose: 60.0 mg/kg/injection, schedule: Q01DX Z (oral), vehicle: methylcellulose (MC) 90 % of control | dose: 120.0 mg/kg/injection, schedule: Q01DX Z (oral), vehicle: methylcellulose (MC) 87 % of control

CC(C(=O)N1c2ccccc2Sc2ccccc21)[N+](C)(C)C (stereo unspecified)
inactive: [1] 112 % of control | dose: 25.0 mg/kg/injection, schedule: Q01DX009 (ip), vehicle: saline 100 % of control | [2] 98 % of control | dose: 50.0 mg/kg/injection, schedule: Q01DX009 (ip), vehicle: saline 102 % of control | [3] 104 % of control | [4] 104 % of control

CC(C)c1sc([S-])n[n+]1-c1ccccc1
inactive: [5] 104 % of control | [4] 101 % of control | [6] 101 % of control | [7] 95 % of control | [8] 91 % of control | [9] 101 % of control

COc1cc(/C=N\N=C\c2cc(OC)c(OC)c(OC)c2)cc(OC)c1OC
inactive: [10] 96 % of control | [11] 97 % of control | [12] 96 % of control | [13] 92 % of control | [14] 92 % of control | [15] 92 % of control

CC1CCC2(CC3C(CC(C4CCC5CC(O)CCC5(C)C4CC(=O)O)C3(C)O)O2)OC1 (stereo unspecified)
inactive: dose: 75.0 mg/kg/injection, schedule: Q04DX003 (ip), vehicle: saline 89 % of control | dose: 150.0 mg/kg/injection, schedule: Q04DX003 (ip), vehicle: saline 100 % of control | dose: 300.0 mg/kg/injection, schedule: Q04DX003 (ip), vehicle: saline 87 % of control

O=C1CC2(CCCCC2)C(=O)N1
inactive: dose: 5.0 mg/kg/injection, schedule: Q04DX003 (ip), vehicle: saline with Tween-80 102 % of control | dose: 10.0 mg/kg/injection, schedule: Q04DX003 (ip), vehicle: saline with Tween-80 102 % of control | dose: 20.0 mg/kg/injection, schedule: Q04DX003 (ip), vehicle: saline with Tween-80 102 % of control

CC1=CC(=O)N(N)C1=O
inactive: [10] 102 % of control | [11] 98 % of control | [12] 104 % of control | [13] 100 % of control | [14] 100 % of control | [15] 96 % of control

CCC(OBr)C1COC(Nc2ccccc2)O1 (stereo unspecified)
inactive: dose: 100.0 mg/kg/injection, schedule: Q01DX009 (ip), vehicle: Klucel (hydroxypropylcellulose) (HPC) 96 % of control | [4] 95 % of control | dose: 200.0 mg/kg/injection, schedule: Q01DX009 (ip), vehicle: Klucel (hydroxypropylcellulose) (HPC) 96 % of control | [7] 105 % of control | dose: 400.0 mg/kg/injection, schedule: Q01DX009 (ip), vehicle: Klucel (hydroxypropylcellulose) (HPC) 103 % of control | [9] 101 % of control

CS(=O)(=O)N(c1ccccc1)c1ccccc1N
inactive: dose: 100.0 mg/kg/injection, schedule: Q01DX001 (ip), vehicle: other 94 % of control | dose: 200.0 mg/kg/injection, schedule: Q01DX001 (ip), vehicle: other 107 % of control | dose: 400.0 mg/kg/injection, schedule: Q01DX001 (ip), vehicle: other 88 % of control

C/C(CC(=O)Nc1ccc(Cc2ccc(Cl)cc2)cc1)=N/Nc1ccc([N+](=O)[O-])cc1[N+](=O)[O-]
inactive: [5] 94 % of control | [6] 101 % of control

COCC(O)CC#N (stereo unspecified)
inactive: dose: 100.0 mg/kg/injection, schedule: Q01DX009 (ip), vehicle: saline 117 % of control | dose: 200.0 mg/kg/injection, schedule: Q01DX009 (ip), vehicle: saline 113 % of control | dose: 400.0 mg/kg/injection, schedule: Q01DX009 (ip), vehicle: saline 111 % of control

O=C(O)c1cccc2c1-c1ccccc1/C2=N\O
inactive: [5] 100 % of control | [6] 110 % of control | [8] 104 % of control

NC1CCCc2ccccc2C1O (stereo unspecified)
inactive: [5] 102 % of control | [6] 104 % of control

C[n+]1c(/C=C/c2ccc3cccc(O)c3n2)ccc2cccc(O)c21
inactive: dose: 12.5 mg/kg/injection, schedule: Q01DX001 (ip), vehicle: saline 100 % of control | dose: 12.5 mg/kg/injection, schedule: Q01DX009 (ip), vehicle: saline with Tween-80 106 % of control | [1] 96 % of control | dose: 25.0 mg/kg/injection, schedule: Q01DX001 (ip), vehicle: saline 107 % of control | dose: 25.0 mg/kg/injection, schedule: Q01DX009 (ip), vehicle: saline with Tween-80 95 % of control | [2] 97 % of control | [16] 102 % of control | [3] 96 % of control

C=C(CCC(C(=O)O)C1CCC2(C)C3=C(CCC12C)C1(C)CCC(O)C(C)(C)C1CC3)C(C)C (stereo unspecified)
inactive: [10] 91 % of control | [12] 87 % of control | [14] 94 % of control

CC1(O)c2cccc3c2C2(O)c4c1cccc4C(C)(O)c1cccc(c12)C3(C)O (stereo unspecified)
inactive: [10] 106 % of control | [11] 103 % of control and 108 % of control | [12] 105 % of control | [13] 114 % of control and 110 % of control | [15] 95 % of control and 101 % of control

CN1CCN(C(=O)C2C(c3ccccc3)C2c2cccc(C(F)(F)F)c2)CC1 (stereo unspecified)
inactive: dose: 100.0 mg/kg/injection, schedule: Q04DX002 (ip), vehicle: saline with Tween-80 103 % of control | dose: 200.0 mg/kg/injection, schedule: Q04DX002 (ip), vehicle: saline with Tween-80 98 % of control | dose: 400.0 mg/kg/injection, schedule: Q04DX002 (ip), vehicle: saline with Tween-80 92 % of control

CCOC(=O)CCc1c(C(=O)OCC)[nH]c(C)c1CC(=O)OC
inactive: dose: 100.0 mg/kg/injection, schedule: Q04DX003 (ip), vehicle: Klucel (hydroxypropylcellulose) (HPC) 98 % of control | dose: 200.0 mg/kg/injection, schedule: Q04DX003 (ip), vehicle: Klucel (hydroxypropylcellulose) (HPC) 101 % of control | dose: 400.0 mg/kg/injection, schedule: Q04DX003 (ip), vehicle: Klucel (hydroxypropylcellulose) (HPC) 101 % of control

CNc1cc(Cl)ncn1
inactive: [16] 90 % of control | [5] 93 % of control | [6] 95 % of control
